Data on 33 compounds can be found in US20090311217A1, “3-SUBSTITUTED-1H-INDOLE COMPOUNDS, THEIR USE AS MTOR KINASE AND PI3 KINASE INHIBITORS, AND THEIR SYNTHESES” (priority 2008, published 2009).

Some results are limits rather than exact numbers.

The target in test [1] is PI3K-alpha (Homo sapiens, UniProt P42336). The test can be described thus: PI3K-alpha fluorescence polarization assay. Format: biochemical. Conditions: read-out: PI3Kα Avg. IC50. (In general: Fluorescence polarisation rises when a labelled molecule tumbles more slowly, as on binding a larger partner.)
Chain of PI3K-alpha (P42336 whole entry, species assumed): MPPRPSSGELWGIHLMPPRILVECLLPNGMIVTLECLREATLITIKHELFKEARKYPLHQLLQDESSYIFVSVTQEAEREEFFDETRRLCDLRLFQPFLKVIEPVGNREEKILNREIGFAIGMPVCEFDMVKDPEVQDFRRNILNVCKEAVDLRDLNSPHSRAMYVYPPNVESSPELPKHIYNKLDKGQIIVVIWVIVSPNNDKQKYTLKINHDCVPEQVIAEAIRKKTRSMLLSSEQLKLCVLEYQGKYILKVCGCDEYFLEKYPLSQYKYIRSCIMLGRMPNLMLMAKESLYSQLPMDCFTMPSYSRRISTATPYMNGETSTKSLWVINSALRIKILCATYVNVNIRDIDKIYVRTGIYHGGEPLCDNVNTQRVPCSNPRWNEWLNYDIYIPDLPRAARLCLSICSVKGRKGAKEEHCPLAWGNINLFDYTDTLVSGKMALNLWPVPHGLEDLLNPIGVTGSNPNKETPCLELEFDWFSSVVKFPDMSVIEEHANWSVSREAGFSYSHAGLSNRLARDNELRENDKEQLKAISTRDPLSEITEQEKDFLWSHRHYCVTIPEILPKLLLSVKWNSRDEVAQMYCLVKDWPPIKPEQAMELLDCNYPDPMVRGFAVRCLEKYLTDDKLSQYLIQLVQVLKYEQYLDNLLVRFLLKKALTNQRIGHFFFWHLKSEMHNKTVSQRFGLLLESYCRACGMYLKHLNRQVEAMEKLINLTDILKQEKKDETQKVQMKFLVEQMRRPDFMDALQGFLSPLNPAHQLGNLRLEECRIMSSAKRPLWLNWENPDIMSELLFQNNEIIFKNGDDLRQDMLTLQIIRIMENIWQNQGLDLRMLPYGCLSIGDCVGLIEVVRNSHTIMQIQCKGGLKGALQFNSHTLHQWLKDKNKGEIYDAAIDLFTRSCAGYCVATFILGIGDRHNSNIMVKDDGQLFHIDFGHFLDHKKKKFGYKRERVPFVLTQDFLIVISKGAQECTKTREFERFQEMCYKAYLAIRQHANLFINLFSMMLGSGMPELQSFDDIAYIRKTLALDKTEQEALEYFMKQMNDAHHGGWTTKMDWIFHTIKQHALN
Chain of PI3K-alpha (P27986 whole entry partner, species assumed): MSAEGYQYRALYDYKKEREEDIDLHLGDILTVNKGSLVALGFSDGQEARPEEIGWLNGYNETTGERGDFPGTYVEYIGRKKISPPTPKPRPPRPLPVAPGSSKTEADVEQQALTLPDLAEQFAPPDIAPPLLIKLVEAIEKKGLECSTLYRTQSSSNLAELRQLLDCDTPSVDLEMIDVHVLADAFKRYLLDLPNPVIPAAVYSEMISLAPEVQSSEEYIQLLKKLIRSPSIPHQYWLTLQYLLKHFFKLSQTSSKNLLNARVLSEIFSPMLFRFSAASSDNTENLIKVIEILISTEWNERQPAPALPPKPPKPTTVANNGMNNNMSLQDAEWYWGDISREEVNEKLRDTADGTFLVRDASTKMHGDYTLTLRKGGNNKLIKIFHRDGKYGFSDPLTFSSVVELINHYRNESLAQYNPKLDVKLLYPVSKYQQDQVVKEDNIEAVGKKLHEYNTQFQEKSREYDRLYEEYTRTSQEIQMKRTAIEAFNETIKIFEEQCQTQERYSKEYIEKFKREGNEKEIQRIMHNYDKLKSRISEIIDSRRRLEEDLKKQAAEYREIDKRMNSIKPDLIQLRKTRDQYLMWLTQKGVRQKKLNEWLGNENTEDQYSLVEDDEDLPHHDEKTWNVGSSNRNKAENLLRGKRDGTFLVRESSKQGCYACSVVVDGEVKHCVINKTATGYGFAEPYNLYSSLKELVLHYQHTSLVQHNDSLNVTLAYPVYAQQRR
The target of test [2] is T1, human TOR (Homo sapiens, UniProt P42345).
T1 construct: FLAG
Briefly: mTOR enzyme assay (DELFIA, His6-S6K substrate). Format: biochemical. To be noted: read-out: mTOR Kinase Avg. IC50.

For the compound `O=C1C(=Cc2c[nH]c3c([N+](=O)[O-])cccc23)Oc2cc(O)cc(O)c21` [Example 180, 4,6-dihydroxy-2-[(7-nitro-1H-indol-3-yl)methylene]-1-benzofuran-3(2H)-one], the 50% inhibitory concentration (IC50) (as a rule, the concentration that gives 50% inhibition) in test [1] was 3.12 µM; in test [2] it was over 20 µM.
Regarding `O=C(Nc1ccc2[nH]cc(C=C3Oc4cc(O)cc(O)c4C3=O)c2c1)c1ccco1` [Example 183, N-{3-[(4,6-dihydroxy-3-oxo-1-benzofuran-2(3H)-ylidene)methyl]-1H-indol-5-yl}-2-furamide], the IC50 came out at 1.2 µM in test [1] and 6.1 µM in test [2].
In the same order, the values of `COc1ccc2c(C=C3Oc4cc(O)cc(O)c4C3=O)c[nH]c2c1` [Example 186, 4,6-dihydroxy-2-[(6-methoxy-1H-indol-3-yl)methylene]-1-benzofuran-3(2H)-one] are 5.76 µM and 16 µM.
For `CCc1cccc2c(C=C3Oc4cc(O)cc(O)c4C3=O)c[nH]c12` [Example 187, 2-[(7-ethyl-1H-indol-3-yl)methylene]-4,6-dihydroxy-1-benzofuran-3(2H)-one], the 50% inhibitory concentration (IC50) in test [1] is 5 µM; in test [2] it was over 20 µM.
As for `Cc1noc(C)c1-c1c(C=C2Oc3cc(O)cc(O)c3C2=O)c2ccccc2n1C` [Example 191, 2-{[2-(3,5-dimethylisoxazol-4-yl)-1-methyl-1H-indol-3-yl]methylene}-4,6-dihydroxy-1-benzofuran-3(2H)-one], the figures for the concentration for half-maximal inhibition (IC50) in test [1] and in test [2] were 4.18 µM and 0.39 µM, respectively.
Turning to `Cn1c(-c2cccc(O)c2)c(C=C2Oc3cc(O)cc(O)c3C2=O)c2ccccc21` [Example 192, 4,6-dihydroxy-2-{[2-(3-hydroxyphenyl)-1-methyl-1H-indol-3-yl]methylene}-1-benzofuran-3(2H)-one], the IC50 is 2.42 µM in test [1] and 0.39 µM in test [2].
For `COc1ccc(-c2c(C=C3Oc4cc(O)cc(O)c4C3=O)c3ccccc3n2C)cc1` [Example 195, 4,6-dihydroxy-2-{[2-(4-methoxyphenyl)-1-methyl-1H-indol-3-yl]methylene}-1-benzofuran-3(2H)-one], the IC50 came to 1.03 µM in test [1] and 0.38 µM in test [2].
On to `COc1cccc(-c2c(C=C3Oc4cc(O)cc(O)c4C3=O)c3ccccc3n2C)c1` [Example 196, 4,6-dihydroxy-2-{[2-(3-methoxyphenyl)-1-methyl-1H-indol-3-yl]methylene}-1-benzofuran-3(2H)-one], for which the IC50 in test [1] came out at 1.69 µM; in test [2], 0.39 µM.
In the same order, the values of `CN(C)c1ccc(-c2c(C=C3Oc4cc(O)cc(O)c4C3=O)c3ccccc3n2C)cc1` [Example 198, 2-({2-[4-(dimethylamino)phenyl]-1-methyl-1H-indol-3-yl}methylene)-4,6-dihydroxy-1-benzofuran-3(2H)-one] are 4.87 µM and 4.5 µM.
As for `Cn1c(-c2ccc(F)c(Cl)c2)c(C=C2Oc3cc(O)cc(O)c3C2=O)c2ccccc21` [Example 199, 2-{[2-(3-chloro-4-fluorophenyl)-1-methyl-1H-indol-3-yl]methylene}-4,6-dihydroxy-1-benzofuran-3(2H)-one], the half-maximal inhibitory concentration (IC50) in test [1] was 1.56 µM; in test [2], 1.4 µM.
With `O=C1C(=Cc2c(-c3ccsc3)[nH]c3ccccc23)Oc2cc(O)cc(O)c21` [Example 207, 4,6-dihydroxy-2-{[2-(3-thienyl)-1H-indol-3-yl]methylene}-1-benzofuran-3(2H)-one], the IC50 in test [1] amounted to 1.29 µM; in test [2] it was 0.3 µM.
As to `COc1ccc(-c2[nH]c3ccccc3c2C=C2Oc3cc(O)cc(O)c3C2=O)cc1` [Example 208, 4,6-dihydroxy-2-{[2-(4-methoxyphenyl)-1H-indol-3-yl]methylene}-1-benzofuran-3(2H)-one], the IC50 was found to be 0.954 µM in test [1] and 0.3 µM in test [2].
In the case of `COc1cccc(-c2[nH]c3ccccc3c2C=C2Oc3cc(O)cc(O)c3C2=O)c1` [Example 209, 4,6-dihydroxy-2-{[2-(3-methoxyphenyl)-1H-indol-3-yl]methylene}-1-benzofuran-3(2H)-one], the concentration for half-maximal inhibition (IC50) in test [1] stood at 1.16 µM; in test [2] it was 0.49 µM.
The matching figures for `CN(C)c1ccc(-c2[nH]c3ccccc3c2C=C2Oc3cc(O)cc(O)c3C2=O)cc1` [Example 211, 2-({2-[4-(dimethylamino)phenyl]-1H-indol-3-yl}methylene)-4,6-dihydroxy-1-benzofuran-3(2H)-one]: 1.06 µM and 0.59 µM.
On to `O=C1C(=Cc2c(-c3ccc(F)c(Cl)c3)[nH]c3ccccc23)Oc2cc(O)cc(O)c21` [Example 212, 2-{[2-(3-chloro-4-fluorophenyl)-1H-indol-3-yl]methylene}-4,6-dihydroxy-1-benzofuran-3(2H)-one], for which the values for the IC50 in test [1] and in test [2] were 1.06 µM and 0.64 µM, respectively.
Take `CCCn1c(-c2ccccc2)c(C=C2Oc3cc(O)cc(O)c3C2=O)c2ccccc21` [Example 214, 4,6-dihydroxy-2-[(2-phenyl-1-propyl-1H-indol-3-yl)methylene]-1-benzofuran-3(2H)-one]: the IC50 in test [1] amounted to 4.91 µM; in test [2], 2.55 µM.
`CC(=O)Nc1ccc2[nH]c(C)c(C=C3Oc4cc(O)cc(O)c4C3=O)c2c1` [Example 216, N-{3-[(4,6-dihydroxy-3-oxo-1-benzofuran-2(3H)-ylidene)methyl]-2-methyl-1H-indol-5-yl}acetamide]: the half-maximal inhibitory concentration (IC50) in test [1] was determined as 9.5 µM; in test [2] it was 11.5 µM.
For `Cc1[nH]c2c(Br)cccc2c1C=C1Oc2cc(O)cc(O)c2C1=O` [Example 217, 2-[(7-bromo-2-methyl-1H-indol-3-yl)methylene]-4,6-dihydroxy-1-benzofuran-3(2H)-one], the IC50 is 1.42 µM in test [1] and 2.4 µM in test [2].
On to `Cc1[nH]c2ccc(F)cc2c1C=C1Oc2cc(O)cc(O)c2C1=O` [Example 218, 2-[(5-fluoro-2-methyl-1H-indol-3-yl)methylene]-4,6-dihydroxy-1-benzofuran-3(2H)-one], for which the 50% inhibitory concentration (IC50) amounted to 0.796 µM in test [1] and 1.65 µM in test [2].
In the case of `COc1ccc2[nH]cc(C=C3Oc4cc(O)cc(O)c4C3=O)c2c1C` [Example 219, 4,6-dihydroxy-2-[(5-methoxy-4-methyl-1H-indol-3-yl)methylene]-1-benzofuran-3(2H)-one], the half-inhibitory concentration (IC50) was 1 µM in test [1] and over 20 µM in test [2].
For the compound `N#Cc1cccc2[nH]cc(C=C3Oc4cc(O)cc(O)c4C3=O)c12` [Example 220, 3-[(4,6-dihydroxy-3-oxo-1-benzofuran-2(3H)-ylidene)methyl]-1H-indole-4-carbonitrile], the values for the concentration for half-maximal inhibition (IC50) in test [1] and in test [2] were 1.98 µM and 4.3 µM, respectively.
As for `O=C1C(=Cc2c[nH]c3cc(C(F)(F)F)ccc23)Oc2cc(O)cc(O)c21` [Example 221, 4,6-dihydroxy-2-{[6-(trifluoromethyl)-1H-indol-3-yl]methylene}-1-benzofuran-3(2H)-one], the concentration for half-maximal inhibition (IC50) in test [1] is 1.16 µM; in test [2], over 20 µM.
The matching figures for `COC(=O)c1cccc2[nH]cc(C=C3Oc4cc(O)cc(O)c4C3=O)c12` [Example 222, methyl 3-[(4,6-dihydroxy-3-oxo-1-benzofuran-2(3H)-ylidene)methyl]-1H-indole-4-carboxylate]: 4.46 µM and 2.1 µM.
Consider `Cc1c(C=C2Oc3cc(O)cc(O)c3C2=O)c2cc(Cl)ccc2n1C` [Example 233, 2-[(5-chloro-1,2-dimethyl-1H-indol-3-yl)methylene]-4,6-dihydroxy-1-benzofuran-3(2H)-one], for which the IC50 was 2.04 µM in test [1] and 0.85 µM in test [2].
In the same order, the values of `Cc1c(C=C2Oc3cc(O)cc(O)c3C2=O)c2cccc(Br)c2n1C` [Example 234, 2-[(7-bromo-1,2-dimethyl-1H-indol-3-yl)methylene]-4,6-dihydroxy-1-benzofuran-3(2H)-one] are over 10 µM and 14 µM.
`COc1ccc2c(c(C=C3Oc4cc(O)cc(O)c4C3=O)cn2C)c1C` [Example 236, 4,6-dihydroxy-2-[(5-methoxy-1,4-dimethyl-1H-indol-3-yl)methylene]-1-benzofuran-3(2H)-one]: the values for the half-inhibitory concentration (IC50) in test [1] and in test [2] were 1.47 µM and 1.6 µM, respectively.
`Cn1cc(C=C2Oc3cc(O)cc(O)c3C2=O)c2ccc(C(F)(F)F)cc21` [Example 237, 4,6-dihydroxy-2-{[1-methyl-6-(trifluoromethyl)-1H-indol-3-yl]methylene}-1-benzofuran-3(2H)-one]: the IC50 in test [1] is 2.48 µM; in test [2] it was over 20 µM.
In the same order, the values of `COc1ccc2c(c(C=C3Oc4cc(O)cc(O)c4C3=O)cn2CCCC#N)c1C` [Example 239, 4-{3-[(4,6-dihydroxy-3-oxo-1-benzofuran-2(3H)-ylidene)methyl]-5-methoxy-4-methyl-1H-indol-1-yl}butanenitrile] are 4.94 µM and 5.9 µM.
The matching figures for `Cc1c(C=C2Oc3cc(O)cc(O)c3C2=O)c2ccccc2n1CCCC#N` [Example 240, 4-{3-[(4,6-dihydroxy-3-oxo-1-benzofuran-2(3H)-ylidene)methyl]-2-methyl-1H-indol-1-yl}butanenitrile]: 3.33 µM and 2.7 µM.
In the case of `N#CCCCn1cc(C=C2Oc3cc(O)cc(O)c3C2=O)c2ccccc21` [Example 241, 4-{3-[(4,6-dihydroxy-3-oxo-1-benzofuran-2(3H)-ylidene)methyl]-1H-indol-1-yl}butanenitrile], the IC50 in test [1] was 4.71 µM; in test [2], over 20 µM.
As for `O=C1C(=Cc2c[nH]c3cccc(OCc4ccccc4)c23)Oc2cc(O)cc(O)c21` [Example 243, 2-{[4-(benzyloxy)-1H-indol-3-yl]methylene}-4,6-dihydroxy-1-benzofuran-3(2H)-one], the concentration for half-maximal inhibition (IC50) in test [1] came out at 1.05 µM; in test [2] it was 0.48 µM.
Take `O=C1C(=Cc2c[nH]c3c(Br)cccc23)Oc2cc(O)cc(O)c21` [Example 244, 2-[(7-bromo-1H-indol-3-yl)methylene]-4,6-dihydroxy-1-benzofuran-3(2H)-one]: the IC50 was 1.96 µM in test [1] and 18 µM in test [2].
As to `COC(=O)c1cccc2c(C=C3Oc4cc(O)cc(O)c4C3=O)c[nH]c12` [Example 245, methyl 3-[(4,6-dihydroxy-3-oxo-1-benzofuran-2(3H)-ylidene)methyl]-1H-indole-7-carboxylate], the figures for the half-inhibitory concentration (IC50) in test [1] and in test [2] were 1.49 µM and over 20 µM, respectively.
